The source of these data is US6506393B2, “Methods of treating protozoal diseases” (Zentaris AG, priority 1991, dated 2003).

In brackets after ≈: the same amount, converted by molar mass. Entries after “also recorded” stand apart in the source; their conditions may differ.

Data set [1] concerns L. donovani. Nature of the data set: Effect of leishmaniasis drugs on the number of pathogens in liver and spleen of rats infected with L. donovani (Examples 39, 40). It is filed as in vivo. Conditions: for Relative effectiveness (pathogens per liver after Pentostam therapy divided by pathogens/liver after addition of test substance) / Pathogens per liver (in millions): orally 5 × 20 mg/kg/week for 3 weeks; for Pathogens per liver (in millions): rats infected with L. donovani, microscopic analysis. How it is done: Effect of various leishmaniasis drugs on the presence of pathogens in the liver of experimental animals (rats) infected with L. donovani.
The compounds according to the present invention and Et18OCH3 were administered orally while Pentostam was administered intravenously.
The number of pathogens per liver was determined by microscopic analysis.
The experimental procedure was as described in example 39.

The subject of data set [2] is L. donovani. The data set is described as above. In kind it is in vivo. Conditions: for Pathogens per spleen (in millions): 3 week period of therapy; for Relative effectiveness (pathogens per spleen after Pentostam therapy divided by pathogens/spleen after addition of test substance): procedure as in example 39 (orally 5 × 20 mg/kg/week for 3 weeks).
Data set [3] deals with L. donovani strain MHOM/IN/54LRC-L.51 promastigotes. Nature of the data set: Effect on pathogens in vitro: promastigote culture, 96 hours, counting chamber (Example 41). It is filed as cell-based. Conditions: 96 hours of incubation, 26° C., mean and SD of 3 experiments; for IC50: Leishmania donovani. The method, then:
Several compounds of the invention were tested against L. donovani strain MHOM/IN/54LRC-L.51, isolated from a patient with visceral leishmaniasis. Before use for experiments, the strain was passed through Balb/c mice by intravenous injection.
Promastigotes were cultured in vitro in a mixed medium consisting of one part of HOSMEM and one part of RPMI-1640 (Gibco 041-02400) supplemented with 10% heat-inactivated fetal bovine serum (Gibco 011-06290) at 26° C. Cultures were maintained by seeding 5×10^6 promastigotes from 4-day-old cultures into 10 ml fresh medium. The promastigotes were cultured in 24-well-multiplates. After 96 hours of incubation in control or drug-containing media, the number of promastigotes was determined in a Neubauer counting chamber. The 50% inhibitory concentration was calculated graphically. The data is representative of the mean and SD values of 3 different experiments.

Data set [4] concerns three strains of Leishmania (L. donovani MHOM/IN/54LRC-L.51; L. donovani MHOM/IN/80/DDS and L. infantum MHOM/ES/86/STI-172). Nature of the data set: Effect on pathogens in vivo: parasite burden in liver and spleen of infected Balb/c mice (Example 42). How it is done: Several compounds of the invention were tested against three strains of Leishmania (L. donovani MHOM/IN/54LRC-L.51; L. donovani MHOM/IN/80/DDS and L. infantum MHOM/ES/86/STI-172). All strains were isolated from patients with visceral leishmaniasis. Before use for experiments, the strains were passed through Balb/c mice by intravenous injection.
Balb/c mice were infected by intravenous injection of a mixture of 10^7 promastigotes from stationary growth phase and 10^7 amastigotes which were isolated from the liver or spleen of leishmania-infected mice. Oral treatment with the compounds of the invention was initiated on day 7, at which time the mean parasitic burden was 100 to 200×10^6 amastigotes per liver, 1 to 2×10^6 per spleen and 3 to 6 amastigotes per microscopic field of 100 hematopoietic cells in bone marrow.
Parasite burden in spleen and liver were determined in GIEMSA's stained impression smears from cut sections by counting the number of amastigotes per 1000 spleen or liver nuclei. The total number of amastigotes per organ was calculated according to Stauber et al. (J. Protozool. 5:269-273 (1958)). Parasite suppression (parasite burden of drug treated mice to parasite burden of untreated mice) and parasite killing (parasite burden at the end of treatment to parasite burden at the start of treatment) were calculated according to Baumann et al. (Antimicrob. Agents Chemother. 35:1403-1407 (1991)) for all strains on day 14, for the strain LRC-L.51 in addition on days 21, 25 and 35 post-infectionem. The parasite burden in the bone marrow was examined on days 7 and 35 post-infectionem (strain LRC-L.51).
Table V summarizes the in vivo treatment results of several compounds of the invention in the liver and the spleen of treated mice. […] However, it is clear from the Table that the compounds of the invention produced much better results.

Data set [5] concerns Leishmania. Nature of the data set: Four-week treatment period of Leishmania-infected mice (Example 43). In kind it is in vivo. From the text: In a further experiment, hexadecylphosphocholine was investigated in more detail.
The conditions of data set [6]: in vivo, sc; cited from earlier work.
Where [7] appears, read: procedure as in example 39 (orally 5 × 20 mg/kg/week).

In the case of `CCCCCCCCCCCCCCCCCCOCC(COP(=O)([O-])OCC[N+](C)(C)C)OC` (racemic) [Et18OCH3, 1-octadecyl-2-methyl-rac-glycero-3-phosphocholine, reference compound], in data set [1], the “Relative effectiveness (pathogens per liver after Pentostam therapy divided by pathogens/liver after addition of test substance)” value is 0.007 and the “Pathogens per liver (in millions)” value came to 424.7 millions. The “Pathogens per spleen (in millions)” value in data set [2] (setting [7]) stood at 6.5 millions. The “Relative effectiveness (pathogens per spleen after Pentostam therapy divided by pathogens/spleen after addition of test substance)” value in data set [2] was 0.9.

On to `CCCCCCCCCCCCCCCCOP(=O)([O-])OCC[N+](C)(C)C` [Example 1, Hexadecylphosphocholine], for which the “Parasites microscopically detectable in the liver and in the spleen” value in data set [1] (additional experiments, single oral dose of 200 mg) is on record as “no longer microscopically detectable”. Moreover, in data set [1], the “Pathogens per liver (in millions)” value worked out at 0.1 millions. In addition, in data set [3], the IC50 (as a rule, the concentration that gives 50% inhibition) is 2.07 ± 0.23 µg/mL (≈ 5.08 µM). Besides, in data set [2] (setting [7]), the “Pathogens per spleen (in millions)” value is listed as 0.01 millions. Further, in data set [2] (several additional experiments (Example 40, spleen), single oral dose of 200 mg), the Parasites microscopically detectable is “no longer microscopically detectable”. In data set [4] (oral treatment, dose 20 mg/kg), the “Parasites (× 10^6) Liver” value is on record as 0.07 × 10^6 and the “Parasites (× 10^6) Spleen” value is listed as 0.008 × 10^6. The “Spleen Weight” value in data set [5] (Leishmania-infected mice, 10 mg (oral)) was found to be 150 mg. Besides, the “Reduction of parasites in the spleen” value in data set [5] (spleen, oral treatment with 20 mg/kg) is “more than three log rank reduction of parasites”. In addition, in data set [6], the “Toxicity for the experimental animals, in particular for macrophages” value is recorded as “highly toxic”.

Turning to `CCCCCCCCCCCCCCCCCCOP(=O)([O-])OCC[N+](C)(C)C` [Example 2, Octadecylphosphocholine], in data set [1], the “Relative effectiveness (pathogens per liver after Pentostam therapy divided by pathogens/liver after addition of test substance)” value amounted to 32.0 and the “Pathogens per liver (in millions)” value is 0.1 millions. Further, in data set [3], the IC50 was 0.8 ± 0.2 µg/mL (≈ 1.84 µM). Also, in data set [2] (setting [7]), the “Pathogens per spleen (in millions)” value is on record as 0.01 millions. The “Relative effectiveness (pathogens per spleen after Pentostam therapy divided by pathogens/spleen after addition of test substance)” value in data set [2] is given as 630.0. For the same compound, in data set [4] (oral treatment, dose 20 mg/kg), the “Parasites (× 10^6) Liver” value is recorded as 0.07 × 10^6 and the “Parasites (× 10^6) Spleen” value is recorded as 0.015 × 10^6.

With `CCCCCCCC/C=C/CCCCCCCCOP(=O)([O-])OCC[N+](C)(C)C` [Example 4, Elaidylphosphocholine], the IC50 in data set [3] was 0.41 ± 0.14 µg/mL (≈ 0.946 µM). Moreover, in data set [4] (oral treatment, dose 20 mg/kg), the “Parasites (× 10^6) Liver” value is listed as 28 × 10^6 and the “Parasites (× 10^6) Spleen” value is 0.02 × 10^6.

Take `CCCCCCCC/C=C\CCCCCCCCOP(=O)([O-])OCC[N+](C)(C)CC` [Example 7, Oleylphospho-(N.N-dimethyl-N-ethyl)ethanolamine]: the “Relative effectiveness (pathogens per liver after Pentostam therapy divided by pathogens/liver after addition of test substance)” value in data set [1] (20 mg/kg) is reported as 0.7; in data set [1] (listed as olely-phospho-(N.N-dimethyl-N-ethyl)ethanolamine, 20 mg/kg), “comparable effect to Pentostam”. Besides, the “Pathogens per liver (in millions)” value in data set [1] came to 4.7 millions. Moreover, in data set [2] (setting [7]), the “Pathogens per spleen (in millions)” value stood at 0.03 millions. Moreover, the “Relative effectiveness (pathogens per spleen after Pentostam therapy divided by pathogens/spleen after addition of test substance)” value in data set [2] worked out at 210.0.

As for `CCCCCCCCCCCCCCCCCCOP(=O)([O-])OCC[N+]1(C)CCCC1` [Example 19, Octadecylphospho-(N-methyl)-pyrrolidino-ethyl ester], in data set [3], the “IC50 Value” worked out at 3.59 ± 0.19 µg/mL (≈ 7.78 µM). Besides, in data set [4] (oral treatment, dose 20 mg/kg), the “Parasites (× 10^6) Liver” value was 22 × 10^6 and the “Parasites (× 10^6) Spleen” value was 0.035 × 10^6.

Take `CCCCCCCC/C=C\CCCCCCCCOP(=O)([O-])OCC[N+](C)(CC)CC` [Example 20, Oleylphospho-(N.N-diethyl-N-methyl)-ethanolamine]: the “IC50 Value” in data set [3] was 2.80 ± 0.50 µg/mL (≈ 6.06 µM). Besides, in data set [4] (oral treatment, dose 20 mg/kg), the “Parasites (× 10^6) Liver” value is recorded as 55 × 10^6 and the “Parasites (× 10^6) Spleen” value was 3.8 × 10^6.

`O.O.O.O.O.O.O.O.O.O=C([O-])[C@@H]1[O][Sb]2([O-])([O][Sb]34([OH])[O][C@H]([C@H](O)CO)[C@H]([O]3)[C@H](C(=O)[O-])[O]4)[O][C@H]([C@H](O)CO)[C@@H]1[O]2.[Na+].[Na+].[Na+]` [Pentostam, sodium stibogluconate, reference compound]: in data set [2] (procedure as in example 39 (Pentostam iv. 5 × 120 mg/kg/week), 120 mg/kg), the “Pathogens per spleen (in millions)” value is reported as “weak effect; also recorded: extremely low effectiveness”. For the same compound, in data set [4] (Pentostam, dose 120 mg/kg), the “Parasites (× 10^6) Liver” value is given as “significantly reduced the parasite burden” and the “Parasites (× 10^6) Spleen” value is given as “significantly reduced the parasite burden”. For the same compound, the “Suppression of parasite growth in the spleen compared to control mice” value in data set [5] (spleen, Pentostam) is recorded as “only a moderate suppression of parasite growth”.

`CCCCCCCC/C=C\CCCCCCCCOP(=O)([O-])OCC[N+](CC)(CC)CC` [cis-9-octadecenylphospho-(N,N-diethyl,N-ethylamino)ethanol]: in data set [3], the “IC50 Value” stood at 0.66 ± 0.24 µg/mL (≈ 1.39 µM). In data set [4] (oral treatment, dose 20 mg/kg), the “Parasites (× 10^6) Liver” value is given as 6 × 10^6 and the “Parasites (× 10^6) Spleen” value is 0.03 × 10^6.

As for “octadecylphosphoethanol-(N-methyl)piperidine”, the “IC50 Value” in data set [3] stood at 4.90 ± 0.50 µg/mL. Further, in data set [4] (oral treatment, dose 20 mg/kg), the “Parasites (× 10^6) Liver” value is given as 65 × 10^6 and the “Parasites (× 10^6) Spleen” value is 0.35 × 10^6.
